Measured values from PMC11306024, “Novel metabolite madeirone and neomarinone extracted from Streptomyces aculeoletus as marine antibiofilm and antifouling agents” (Frontiers in Chemistry, 2024).

Experiments:
[1] = test system: Pseudokirchneriella subcapitata; test: Algal growth inhibition test (OECD 201); type: cell-based
Experimental: (§1) The in vivo evaluation of compounds (1) and (2) for acute toxicity was performed towards marine bacterium Aliivibrio fischeri, and planktonic crustacean Daphnia magna. The chronic ecotoxicity tests were evaluated using algae Pseudokirchneriella subcapitata and Phaeodactylum tricornutum.
(§2) Freshwater and marine algal growth inhibition was assessed using P. subcapitata and P. tricornutum according to OECD Guideline 201 procedures (“Alga, Growth Inhibition Test”), ISO-8692 (“Water quality–Fresh water algal growth inhibition test with unicellular green algae”) and ISO-10253. Briefly, the algae cells were de-immobilized from algal beads using Matrix dissolving medium (Microbiotests), according to the manufacturer’s instructions, and grown in flasks containing algal culturing medium which was prepared following the OECD Guideline 201 and ISO-8692. Flasks with algae were kept for 7 days under light with orbital agitation. When the algae culture had sufficient cells, as verified by the optical density at 670 nm, these were tested at an initial cell density of 1 × 10^6 cells/mL in algal culturing medium. Madeirone (1) and neomarinone (2) were dissolved in DMSO and tested at the concentrations of 100, 50, 25, 12.5, 6.25, 3.13, and 1.56 μg/mL. The algae were cultured in microplates in triplicate and were kept for 4 days under light with orbital agitation. […] Each experiment was performed in triplicate and the results of two independent experiments with <10% SD are presented. Growth inhibition calculations were performed using cell numbers (biomass), as determined by a calibration line. Potassium dichromate (K2Cr2O7) was used as a positive control.

C. marina = test: Antibacterial activity (growth inhibition, OD600); type: cell-based, Cobetia marina DSM 4741; settings: 24 h; for inhibition at 15.6 µg/mL: 15.60 µg/mL
Experimental: (§3) To assess antimicrofouling activity, we selected five marine bacterial species as models: Marinobacter hydrocarbonoclasticus DSM 8798 (ATCC 49840), C. marina DSM 4741, Phaeobacter inhibens DSM 17,395, Pseusooceanicola batsensis DSM 15,984, and Micrococcus luteus DSM 20030 (ATCC 4698) ([Michael et al., 2016]). These strains, sourced from DSMZ (Leibniz Institute DSMZ—German Collection of Microorganisms and Cell Cultures), were cultured in liquid marine broth (Carl Roth GmbH, Karlsruhe, Germany) with agitation at 180 rpm or on agar-supplemented marine broth. Incubation temperatures were set at 28°C for M. hydrocarbonoclasticus and Cobetia marina, 30°C for P. inhibens and P. batsensis, while M. luteus was maintained at 37°C in Brain Heart Infusion broth (BHI, Becton Dickinson, GmbH, Heidelberg, Germany) under similar agitation conditions.
(§4) The antibacterial efficacy of compounds (1) and (2) was assessed in 96-well polystyrene flat-bottom microplates (Nunclon Delta Surface, Thermo Scientific, Roskilde, Denmark) following established procedures ([Bauermeister et al., 2019]). In the initial screening, bacterial overnight cultures were diluted to an optical density (OD600nm) of 0.2 and incubated statically at appropriate temperatures. The cultures were treated with the following final concentrations per well: 31.25, 15.60, 7.81, 3.91, 1.95, and 0.98 μg/mL (2-fold serial dilutions) of the compounds, solubilized in DMSO, or left untreated. After 24 h (M. hydrocarbonoclasticus, C. marina) or 48 h (P. batsensis, P. inhibens, M. luteus) incubation, optical density at 600 nm (OD600) was measured using a Molecular Devices Spectra Max 190. Growth inhibition percentages were calculated relatively to untreated bacterial species, using DMSO as a negative control. CuSO4 (0.16 μg/mL), a recognized antifouling agent, was used as positive control. All assays were conducted in triplicate, and the results represent the mean and standard error of the mean (SEM). Statistical analysis was carried out using GraphPad Prism 8.0.2 (San Diego, CA, United States), employing one-way ANOVA followed by Dunnett’s multiple comparisons test against the negative control.

P. batsensis = test: Antibacterial activity (growth inhibition, OD600); type: cell-based, Pseudo-oceanicola batsensis DSM 15984; settings: 48 h; for inhibition at 15.6 µg/mL: 15.60 µg/mL
Experimental: as §3, §4

P. inhibens = test: Antibacterial activity (growth inhibition, OD600); type: cell-based, Phaeobacter inhibens DSM 17395; settings: 48 h
Experimental: as §3, §4

[2] = test system: Phaeodactylum tricornutum; test: Algal growth inhibition test (OECD 201, ISO-10253); type: cell-based
Experimental: as §1, §2

M. luteus [3] = test: Antibacterial activity (growth inhibition, OD600); type: cell-based, Micrococcus luteus DSM 20030; settings: 48 h
Experimental: as §3, §4

M. luteus [4] = test: Antibiofilm activity (inhibition of biofilm formation); type: cell-based, Micrococcus luteus DSM 20030
Experimental: as §3
The antibiofilm potential of compounds (1) and (2) against the five marine bacterial species was investigated in 96-well polystyrene flat-bottom microplates (Nunclon Delta Surface, Thermo Scientific, Roskilde, Denmark), as described previously ([Bauermeister et al., 2019]; [Pereira et al., 2020]). In the initial screening, bacterial overnight cultures were diluted to an OD600 of 0.2 and incubated statically at appropriate temperatures. The cultures were tested at 31.25, 15.60, 7.81, 3.91, 1.95, 0.98 μg/mL concentrations (2-fold serial dilutions) of compounds (1) and (2), solubilized in DMSO, or left untreated. After 24 h (M. hydrocarbonoclasticus, C. marina) or 48 h (P. batsensis, P. inhibens, M. luteus) incubation, OD600 was measured. The planktonic cells and media were discarded, and the wells were washed twice with deionized water. Biofilms were fixed, stained, and quantified by measuring the OD600 after solubilization with acetic acid. Biofilm inhibition percentages were calculated relative to untreated bacterial species, using DMSO as a negative control and CuSO4 (0.16 μg/mL), as a positive control. All assays were performed in triplicate, and the results represent the mean and standard error of the mean (SEM). Statistical analysis was conducted using GraphPad Prism 8.0.2, employing one-way ANOVA followed by Dunnett’s multiple comparisons test against the negative control.

Row | Compound | Inhibition (%) P. subcapitata (growth) ([1]; 50 µg/mL) | Inhibition (%) P. subcapitata (growth) ([1]; 100 µg/mL) | inhibition at 7.81 µg/mL (C. marina; Cobetia marina) | inhibition at 15.6 µg/mL (C. marina; Cobetia marina) | inhibition at 31.25 µg/mL (C. marina; Cobetia marina) | inhibition at 1.95 µg/mL (P. batsensis) | inhibition at 3.91 µg/mL (P. batsensis) | inhibition at 7.81 µg/mL (P. batsensis) | inhibition at 15.6 µg/mL (P. batsensis) | inhibition at 31.25 µg/mL (P. batsensis) | Growth inhibition (%) P. inhibens (P. inhibens; 0.98 µg/mL) | Growth inhibition (%) P. inhibens (P. inhibens; 1.95 µg/mL) | Growth inhibition (%) P. inhibens (P. inhibens; 3.91 µg/mL) | Growth inhibition (%) P. inhibens (P. inhibens; 7.81 µg/mL) | Growth inhibition (%) P. inhibens (P. inhibens; 15.60 µg/mL) | Inhibition (%) P. tricornutum (growth) ([2]; 25 µg/mL) | Inhibition (%) P. tricornutum (growth) ([2]; 50 µg/mL) | Inhibition (%) P. tricornutum (growth) ([2]; 100 µg/mL) | Growth inhibition (%) M. luteus (M. luteus [3]; 15.60 µg/mL) | Biofilm inhibition (%) M. luteus (M. luteus [4]; 0.98 µg/mL, 48 h) | also measured
1 | CC1=CCC[C@@H](C)[C@]1(C)CC[C@@]1(C)c2c(O)cc3c(c2O[C@@H]1C)C(=O)C=C(CO)C3=O (relative stereo) [compound 1, madeirone] | 27.3% | 52.8% | 10 ± 2.1% | 7.7 ± 4% | 12.7 ± 2.7% | 26.6 ± 0.8% | 31 ± 0.7% | 35.9 ± 0.5% | > 40% | > 40% | N.I. | N.I. | N.I. | N.I. | N.I. | 45.7% | 58.0% | 86.9% | N.I. | N.I. | Inhibition (%) P. subcapitata (growth) ([1]; 25 µg/mL): 9.1%; Growth inhibition (%) C. marina (C. marina; 0.98 µg/mL): N.I.; Growth inhibition (%) C. marina (C. marina; 1.95 µg/mL): N.I.; Growth inhibition (%) C. marina (C. marina; 3.91 µg/mL): N.I.; inhibition at 0.98 µg/mL (P. batsensis; 0.98 µg/mL): 20.7 ± 1.1%; inhibition at 31.25 µg/mL (P. inhibens; Phaeobacter inhibens, 31.25 µg/mL): 24.3 ± 0.5%; Growth inhibition (%) M. luteus (M. luteus [3]; 0.98 µg/mL): N.I.; Growth inhibition (%) M. luteus (M. luteus [3]; 1.95 µg/mL): N.I.; Growth inhibition (%) M. luteus (M. luteus [3]; 3.91 µg/mL): N.I.; Growth inhibition (%) M. luteus (M. luteus [3]; 7.81 µg/mL): N.I.; inhibition at 15.6 µg/mL (M. luteus [3]; Micrococcus luteus, 15.60 µg/mL): 9.2%; inhibition at 31.25 µg/mL (M. luteus [3]; Micrococcus luteus, 31.25 µg/mL): 20 ± 0.5%; Biofilm inhibition (%) M. luteus (M. luteus [4]; 1.95 µg/mL, 48 h): N.I.; Biofilm inhibition (%) M. luteus (M. luteus [4]; 3.91 µg/mL, 48 h): N.I.; Biofilm inhibition (%) M. luteus (M. luteus [4]; 7.81 µg/mL, 48 h): N.I.; Biofilm inhibition (%) M. luteus (M. luteus [4]; 15.60 µg/mL, 48 h): N.I.; inhibition at 31.25 µg/mL (M. luteus [4]; Micrococcus luteus, 48 h): 35.3 ± 0.2%
2 | CC1=CCC[C@@H](C)[C@]1(C)CC[C@@]1(C)c2c(O)cc3c(c2O[C@@H]1C)C(=O)C(C)=C(O)C3=O [compound 2, neomarinone] | 9.7% | 26.2% | 9.2 ± 2.1% | 7.2 ± 2.9% | 1.1 ± 2% | 0.3 ± 0.5% | 4.2 ± 0.3% | 0% | 0.9 ± 0.4% | 11.1 ± 0.4% | N.I. | N.I. | N.I. | N.I. | N.I. | 38.5% | 40.8% | 77.7% | N.I. | N.I. | inhibition at 0.98 µg/mL (C. marina; Cobetia marina, 0.98 µg/mL): 10.7 ± 2.2%; inhibition at 1.95 µg/mL (C. marina; Cobetia marina, 1.95 µg/mL): 10.8 ± 3.1%; inhibition at 3.91 µg/mL (C. marina; Cobetia marina, 3.91 µg/mL): 6.5 ± 1.2%; Growth inhibition (%) P. batsensis (P. batsensis; 0.98 µg/mL): N.I.; Growth inhibition (%) P. inhibens (P. inhibens; 31.25 µg/mL): N.I.; Inhibition (%) P. tricornutum (growth) ([2]; 12.5 µg/mL): 26.5%; Growth inhibition (%) M. luteus (M. luteus [3]; 31.25 µg/mL): N.I.; inhibition at 0.98 µg/mL (M. luteus [3]; Micrococcus luteus, 0.98 µg/mL): 1.8 ± 0.4%; inhibition at 1.95 µg/mL (M. luteus [3]; Micrococcus luteus, 1.95 µg/mL): 3.8 ± 1.7%; inhibition at 3.91 µg/mL (M. luteus [3]; Micrococcus luteus, 3.91 µg/mL): 9 ± 0.9%; inhibition at 7.81 µg/mL (M. luteus [3]; Micrococcus luteus, 7.81 µg/mL): 6.8 ± 1%; Biofilm inhibition (%) M. luteus (M. luteus [4]; 1.95 µg/mL, 48 h): N.I.; Biofilm inhibition, up to (highest over tested concentrations) M. luteus (M. luteus [4]; 0.98-31.25 µg/mL tested): up to 40%; inhibition at 3.91 µg/mL (M. luteus [4]; Micrococcus luteus, 3.91 µg/mL, 48 h): 7.8 ± 16.9%; inhibition at 7.81 µg/mL (M. luteus [4]; Micrococcus luteus, 7.81 µg/mL, 48 h): 29.9 ± 12.4%; inhibition at 15.6 µg/mL (M. luteus [4]; Micrococcus luteus, 15.60 µg/mL, 48 h): 41 ± 8.2%; inhibition at 31.25 µg/mL (M. luteus [4]; Micrococcus luteus, 48 h): 33.3 ± 7.3%
